Laboratory results from the supplement of paper PMC10307832.

Key:
Test in all cases: relative viability (nuclei count vs DMSO), 5 days (fraction); higher = more cells survive
[1] = compound: CCn1c(-c2nonc2N)nc2c(C#CC(C)(C)O)ncc(OC[C@H]3CCCNC3)c21 + CC(=O)c1c(C)c2cnc(Nc3ccc(N4CCNCC4)cn3)nc2n(C2CCCC2)c1=O [Palbociclib] (partner 0.5 µM)
Method in brief: (§1)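 Relative viability equals treated-well nuclei counts divided by vehicle-well nuclei counts. Counts came from 4× images of lung cancer cell lines grown in 1536-well plates for 5 days after pin-tool dosing on the day after seeding. Dosing used one drug alone or a fixed anchor-drug dose plus five library-drug doses (not always all listed) in √10 steps, and values are medians of duplicate plates.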

[2] = compound: CCn1c(-c2nonc2N)nc2c(C#CC(C)(C)O)ncc(OC[C@H]3CCCNC3)c21 + Cc1cc(Nc2cc(N3CCN(C)CC3)nc(Sc3ccc(NC(=O)C4CC4)cc3)n2)n[nH]1 [Tozasertib] (partner 0.1 µM)
Method in brief: as §1

[3] = compound: CCn1c(-c2nonc2N)nc2c(C#CC(C)(C)O)ncc(OC[C@H]3CCCNC3)c21 + N=C(N)NC(=N)NCCc1ccccc1 [Phenformin] (partner 250 µM)
Method in brief: as §1

[4] = compound: CCn1c(-c2nonc2N)nc2c(C#CC(C)(C)O)ncc(OC[C@H]3CCCNC3)c21 + Cc1nc(NC(=O)N2CCC[C@H]2C(N)=O)sc1-c1ccnc(C(C)(C)C(F)(F)F)c1 [Alpelisib] (partner 2 µM)
Method in brief: as §1

Cell Line	relative viability ([1]; first compound 0.01 µM)	relative viability ([1]; first compound 0.03162 µM)	relative viability ([1]; first compound 0.1 µM)	relative viability ([1]; first compound 0.3162 µM)	relative viability ([1]; first compound 1 µM)	relative viability ([2]; first compound 0.01 µM)	relative viability ([2]; first compound 0.03162 µM)	relative viability ([2]; first compound 0.1 µM)	relative viability ([2]; first compound 0.3162 µM)	relative viability ([2]; first compound 1 µM)	relative viability ([3]; first compound 0.01 µM)	relative viability ([3]; first compound 0.03162 µM)	relative viability ([3]; first compound 0.1 µM)	relative viability ([3]; first compound 0.3162 µM)	relative viability ([3]; first compound 1 µM)	relative viability ([4]; first compound 0.01 µM)	relative viability ([4]; first compound 0.03162 µM)	relative viability ([4]; first compound 0.1 µM)	relative viability ([4]; first compound 0.3162 µM)	relative viability ([4]; first compound 1 µM)
NCI-H3122	0.177	0.18	0.176	0.175	0.219	0.369	0.405	0.396	0.369	0.337	0.401	0.364	0.447	0.389	0.374	0.869	0.71	0.795	0.798	0.756
PC-3 [JPC-3]	0.529		0.556	0.557	0.531	0.847	0.943	0.833	0.827	0.859	0.504	0.451	0.469	0.463	0.474	1.16	1.02	0.977	1.02	1.02
PC-14	0.581	0.543	0.542	0.476	0.516	0.587	0.63	0.687	0.533	0.716	0.448	0.519	0.597	0.531	0.609	0.945	0.909	1	0.888	0.865
RERF-LC-KJ	1.02	1.06	1.02	0.915	1.05	0.441	0.516	0.403	0.477	0.416	0.391	0.408	0.438	0.356	0.416	0.886	0.958	0.737	0.656	0.781
SK-LU-1	0.405	0.455	0.323	0.414	0.39	0.335	0.387	0.349	0.306	0.344	0.552	0.575	0.455	0.48	0.537	1.08	1.26	0.968	1	1.13
SK-MES-1	0.306	0.298	0.299	0.318	0.308	0.858	0.835	0.894	0.854	0.856	0.654	0.642	0.66	0.617	0.673	0.87	0.916	0.856	1.11	0.953
SW 1573	0.334	0.402	0.326	0.241	0.215	0.175	0.179	0.178	0.201	0.14	0.344	0.274	0.24	0.209	0.194	0.717	0.783	0.656	0.73	0.734
UMC-11	0.292	0.291	0.305	0.329	0.339	0.198	0.209	0.194	0.201	0.197	0.35	0.351	0.31	0.32	0.301	1.04	0.974	0.969	0.96	0.976
